# According to EPA's ToxRefDB 2:
# What was measured:
# rat [1] = conditions: Combined chronic toxicity/carcinogenicity, sprague dawley, Oral, Feed, dose end: 24 month, group: systemic
# dog [2] = conditions: Chronic toxicity; beagle; Oral; Feed; dose end: 52 week; group: systemic; systemic / hematology / erythrocyte (rbc) count differential / erythrocyte (rbc) + systemic / hematology / hemoglobin (hgb) / hemoglobin (…
# rabbit [3] = conditions: Prenatal developmental toxicity study, new zealand white, Oral, Gavage/Intubation, dose end: 19 GD
# mouse [4] = conditions: Carcinogenicity; cd1; Oral; [Not Specified]; dose end: 104 week; group: systemic; systemic / in life observation / body weight / body weight + systemic / in life observation / body weight / body weight gain
# rat [5] = conditions: Prenatal developmental toxicity study, sprague dawley, Oral, Gavage/Intubation, dose end: 16 GD
# dog [6] = conditions: Chronic toxicity; beagle; Oral; Feed; dose end: 52 week; group: systemic; systemic / hematology / erythrocyte (rbc) count differential / erythrocyte (rbc) + systemic / hematology / hemoglobin (hgb) / hemoglobin (…; remark: listed apart in the source
# rat [7] = conditions: Multigenerational reproductive toxicity study, sprague dawley, Oral, Feed, dose end: 2 generation
# mouse [8] = conditions: Carcinogenicity, cd1, Oral, Feed, dose end: 24 month, group: systemic
# rat [9] = conditions: Combined chronic toxicity/carcinogenicity; sprague dawley; Oral; Feed; dose end: 24 month; group: systemic; systemic / in life observation / body weight / body weight
# dog [10] = conditions: Chronic toxicity, beagle, Oral, Capsule, dose end: 12 month, group: systemic
# rat [11] = conditions: Prenatal developmental toxicity study, sprague dawley, Oral, Gavage/Intubation, dose end: 20 GD
# hamster = conditions: Chronic toxicity, Oral, Feed, dose end: 24 month, group: systemic
# rat [12] = conditions: Subchronic oral toxicity in rodents, sprague dawley, Feed, dose end: 90 day, group: systemic
# mouse [13] = conditions: Combined chronic toxicity/carcinogenicity, cd1, Oral, Feed, dose end: 104 week, group: systemic
# rabbit [14] = conditions: Prenatal developmental toxicity study, new zealand white, Oral, Gavage/Intubation, dose end: 18 GD
# rat [15] = conditions: Multigenerational reproductive toxicity study, sprague dawley, Oral, Feed, dose end: 2 generation; remark: listed apart in the source
# rat [16] = conditions: Prenatal developmental toxicity study, sprague dawley, Oral, Gavage/Intubation, dose end: 15 GD
# rat [17] = conditions: Subchronic oral toxicity in rodents, other, Feed, dose end: 13 week
# mouse [18] = conditions: Subchronic oral toxicity in rodents, cd1, Feed, dose end: 13 week, group: systemic
# rat [19] = conditions: Combined chronic toxicity/carcinogenicity, other, Oral, Gavage/Intubation, dose end: 104 week, group: systemic
# rat [20] = conditions: Subchronic oral toxicity in rodents, sprague-dawley, Feed, dose end: 13 week, group: systemic
# [21] = systemic / in life observation / clinical signs / hyperactivity
# [22] = systemic / in life observation / clinical signs / hyperactivity + systemic / in life observation / body weight / body weight + systemic / in…
# [23] = group: developmental, developmental / developmental malformation / aorta / double + developmental / developmental malformation / gallbladder / absent + …
# [24] = group: maternal, systemic / in life observation / body weight / body weight gain
# [25] = group: maternal, systemic / in life observation / body weight / body weight gain + reproductive / reproductive performance / aborted / aborted + systemic / …
# [26] = group: developmental, systemic / in life observation / body weight / fetal weight
# [27] = group: maternal, systemic / in life observation / clinical signs / alopecia + systemic / in life observation / clinical signs / vaginal discharge
# [28] = group: maternal, systemic / in life observation / clinical signs / alopecia + systemic / in life observation / clinical signs / vaginal discharge + systemic…
# [29] = group: offspring, systemic / in life observation / body weight / offspring (pup) weight
# [30] = group: offspring, systemic / in life observation / body weight / offspring (pup) weight + systemic / organ weight / brain / absolute + systemic / organ weight…
# [31] = group: parental, systemic / organ weight / liver / relative to body weight + systemic / hematology / hematocrit (hct) / hematocrit (hct) + systemic / …
# [32] = group: parental, systemic / organ weight / liver / relative to body weight + systemic / in life observation / body weight / body weight + systemic / in life …
# [33] = group: reproductive, reproductive / offspring survival early / litter size / litter size
# [34] = systemic / in life observation / food consumption / food consumption
# [35] = systemic / in life observation / body weight / body weight gain + systemic / organ weight / liver / relative to body weight
# [36] = systemic / in life observation / body weight / body weight gain + systemic / organ weight / liver / relative to body weight + systemic / …
# [37] = group: developmental, developmental / developmental malformation / bone / misaligned + developmental / developmental malformation / general / hemorrhage + …
# [38] = group: maternal, systemic / in life observation / body weight / body weight + systemic / in life observation / body weight / body weight gain + systemic / in…
# [39] = systemic / in life observation / mortality / mortality + systemic / pathology microscopic / kidney / inflammation
# [40] = systemic / in life observation / mortality / mortality + systemic / pathology microscopic / kidney / inflammation + systemic / pathology …
# [41] = systemic / in life observation / body weight / body weight gain + systemic / organ weight / heart / relative to body weight
# [42] = systemic / organ weight / heart / relative to body weight
# [43] = systemic / pathology gross / skin / lesion(s) (nos) + systemic / pathology microscopic / skin / inflammation
# [44] = group: developmental, developmental / developmental malformation / bone / short
# [45] = group: developmental, developmental / developmental malformation / bone / short + developmental / developmental malformation / bone / [other]
# [46] = group: maternal, reproductive / offspring survival early / offspring survival early other / NOS + reproductive / reproductive performance / resorptions / …
# [47] = group: offspring, systemic / in life observation / clinical signs / tremors + systemic / in life observation / body weight / litter weight + systemic / in …
# [48] = group: offspring, systemic / in life observation / clinical signs / tremors + systemic / pathology gross / skin / ulcer
# [49] = group: parental, systemic / pathology gross / skin / ulcer
# [50] = group: developmental, developmental / developmental malformation / bone / absent + developmental / developmental malformation / bone / delayed ossification + …
# [51] = group: maternal, systemic / in life observation / body weight / body weight gain + systemic / in life observation / clinical signs / blood around eyes and …
# [52] = group: cholinesterase, cholinesterase / cholinesterase / cholinesterase / erythrocyte cholinesterase (che)
# [53] = group: systemic, systemic / hematology / erythrocyte (rbc) count differential / erythrocyte (rbc) + systemic / hematology / hematocrit (hct) / hematocrit (…
# [54] = systemic / organ weight / liver / relative to body weight
# [55] = systemic / in life observation / body weight / body weight + systemic / in life observation / water consumption / water consumption + …
# [56] = systemic / pathology microscopic / mammary gland / fibroadenoma
smiles,measurement,setting,value
COc1nc(C)nc(NC(=O)NS(=O)(=O)c2ccccc2Cl)n1 [Chlorsulfuron],LEL,rat [1]; [21],30 mg/kg/day
same,LOAEL,rat [1]; [21],30 mg/kg/day
same,NEL,rat [1]; [22],2 mg/kg/day
same,NOAEL,rat [1]; [22],2 mg/kg/day
same,LEL,dog [2],254 mg/kg/day
same,LOAEL,dog [2],254 mg/kg/day
same,NEL,dog [2],60.6 mg/kg/day
same,NOAEL,dog [2],60.6 mg/kg/day
same,LEL,rabbit [3]; [23],400 mg/kg/day
same,LOAEL,rabbit [3]; [23],400 mg/kg/day
same,NEL,rabbit [3]; [23],200 mg/kg/day
same,NOAEL,rabbit [3]; [23],200 mg/kg/day
same,LEL,rabbit [3]; [24],200 mg/kg/day
same,LOAEL,rabbit [3]; [24],200 mg/kg/day
same,NEL,rabbit [3]; [25],75 mg/kg/day
same,NOAEL,rabbit [3]; [25],75 mg/kg/day
same,LEL,mouse [4],750 mg/kg/day
same,LOAEL,mouse [4],750 mg/kg/day
same,NEL,mouse [4],108 mg/kg/day
same,NOAEL,mouse [4],108 mg/kg/day
same,LEL,rat [5]; [26],1500 mg/kg/day
same,LOAEL,rat [5]; [26],1500 mg/kg/day
same,NEL,rat [5]; [26],500 mg/kg/day
same,NOAEL,rat [5]; [26],500 mg/kg/day
same,LEL,rat [5]; [27],500 mg/kg/day
same,LOAEL,rat [5]; [27],500 mg/kg/day
same,NEL,rat [5]; [28],165 mg/kg/day
same,NOAEL,rat [5]; [28],165 mg/kg/day
same,LEL,dog [6],254 mg/kg/day
same,LOAEL,dog [6],254 mg/kg/day
same,NEL,dog [6],60.6 mg/kg/day
same,NOAEL,dog [6],60.6 mg/kg/day
CCSC(=O)N(CC(C)C)CC(C)C [Butylate],NEL,rat [7]; [29],10 mg/kg/day
same,NOAEL,rat [7]; [29],10 mg/kg/day
same,LEL,rat [7]; [30],50 mg/kg/day
same,LOAEL,rat [7]; [30],50 mg/kg/day
same,NEL,rat [7]; [31],10 mg/kg/day
same,NOAEL,rat [7]; [31],10 mg/kg/day
same,LEL,rat [7]; [32],50 mg/kg/day
same,LOAEL,rat [7]; [32],50 mg/kg/day
same,LEL,rat [7]; [33],200 mg/kg/day
same,LOAEL,rat [7]; [33],> 200 mg/kg/day
same,NEL,rat [7]; [33],50 mg/kg/day
same,NOAEL,rat [7]; [33],≥ 200 mg/kg/day
same,LOAEL,mouse [8]; systemic / in life observation / body weight / body weight + systemic / pathology microscopic / kidney / amyloid deposition + systemic / …,80 mg/kg/day
same,LEL,mouse [8]; [34],20 mg/kg/day
same,NEL,mouse [8]; [34],< 20 mg/kg/day
same,NOAEL,mouse [8]; systemic / in life observation / food consumption / food consumption + systemic / in life observation / body weight / body weight + systemic…,20 mg/kg/day
same,LEL,rat [9],100 mg/kg/day
same,LOAEL,rat [9],100 mg/kg/day
same,NEL,rat [9],50 mg/kg/day
same,NOAEL,rat [9],50 mg/kg/day
same,LEL,dog [10]; [35],25 mg/kg/day
same,LOAEL,dog [10]; [35],25 mg/kg/day
same,NEL,dog [10]; [36],5 mg/kg/day
same,NOAEL,dog [10]; [36],5 mg/kg/day
same,LEL,rat [11]; [37],400 mg/kg/day
same,LOAEL,rat [11]; [37],400 mg/kg/day
same,NEL,rat [11]; [37],40 mg/kg/day
same,NOAEL,rat [11]; [37],40 mg/kg/day
same,LEL,rat [11]; [38],400 mg/kg/day
same,LOAEL,rat [11]; [38],400 mg/kg/day
same,NEL,rat [11]; [38],40 mg/kg/day
same,NOAEL,rat [11]; [38],40 mg/kg/day
O=[N+]([O-])c1ccc(O)cc1C(F)(F)F [3-Trifluoromethyl-4-nitrophenol],LOAEL,hamster; [39],24.9 mg/kg/day
same,NOAEL,hamster; [39],< 24.9 mg/kg/day
same,LEL,hamster; [40],24.9 mg/kg/day
same,NEL,hamster; [40],< 24.9 mg/kg/day
same,LOAEL,rat [12]; [41],146 mg/kg/day
same,NEL,rat [12]; [41],25 mg/kg/day
same,NOAEL,rat [12]; [41],81 mg/kg/day
same,LEL,rat [12]; [42],45 mg/kg/day
CC(C)C(Nc1ccc(C(F)(F)F)cc1Cl)C(=O)OC(C#N)c1cccc(Oc2ccccc2)c1 (stereo not given) [Fluvalinate],LEL,mouse [13]; [43],10 mg/kg/day
same,NEL,mouse [13]; [43],2 mg/kg/day
same,LOAEL,mouse [13]; systemic / pathology microscopic / kidney / inflammation,20 mg/kg/day
same,NOAEL,mouse [13]; systemic / pathology microscopic / kidney / inflammation + systemic / pathology gross / skin / lesion(s) (nos) + systemic / pathology …,10 mg/kg/day
same,LEL,rabbit [14]; [44],125 mg/kg/day
same,LOAEL,rabbit [14]; [44],125 mg/kg/day
same,NEL,rabbit [14]; [45],25 mg/kg/day
same,NOAEL,rabbit [14]; [45],25 mg/kg/day
same,LEL,rabbit [14]; [46],125 mg/kg/day
same,LOAEL,rabbit [14]; [46],125 mg/kg/day
same,NEL,rabbit [14]; [46],25 mg/kg/day
same,NOAEL,rabbit [14]; [46],25 mg/kg/day
same,LEL,rat [15]; [47],9.53 mg/kg/day
same,LOAEL,rat [15]; [47],9.53 mg/kg/day
same,NEL,rat [15]; [48],1.9 mg/kg/day
same,NOAEL,rat [15]; [48],1.9 mg/kg/day
same,LEL,rat [15]; [49],9.53 mg/kg/day
same,LOAEL,rat [15]; [49],9.53 mg/kg/day
same,NEL,rat [15]; [49],1.9 mg/kg/day
same,NOAEL,rat [15]; [49],1.9 mg/kg/day
same,LEL,rat [16]; [50],50 mg/kg/day
same,LOAEL,rat [16]; [50],> 50 mg/kg/day
same,NEL,rat [16]; [50],10 mg/kg/day
same,NOAEL,rat [16]; [50],≥ 50 mg/kg/day
same,LEL,rat [16]; [24],10 mg/kg/day
same,LOAEL,rat [16]; [24],10 mg/kg/day
same,NEL,rat [16]; [51],2 mg/kg/day
same,NOAEL,rat [16]; [51],2 mg/kg/day
same,LEL,rat [17]; [52],18.8 mg/kg/day
same,LOAEL,rat [17]; [52],> 116 mg/kg/day
same,NEL,rat [17]; [52],7.7 mg/kg/day
same,NOAEL,rat [17]; [52],≥ 116 mg/kg/day
same,LEL,rat [17]; [53],1.82 mg/kg/day
same,LOAEL,rat [17]; [53],1.82 mg/kg/day
same,NEL,rat [17]; [53],< 1.82 mg/kg/day
same,NOAEL,rat [17]; [53],< 1.82 mg/kg/day
same,LEL,mouse [18]; [54],1 mg/kg/day
same,NEL,mouse [18]; [54],< 1 mg/kg/day
same,NOAEL,mouse [18]; systemic / pathology gross / skin / lesion(s) (nos) + systemic / hematology / erythrocyte (rbc) count differential / erythrocyte (rbc) + …,3 mg/kg/day
same,LOAEL,mouse [18]; systemic / pathology gross / skin / lesion(s) (nos) + systemic / in life observation / body weight / body weight,30 mg/kg/day
same,LOAEL,rat [19]; [55],2.5 mg/kg/day
same,NOAEL,rat [19]; [55],1 mg/kg/day
same,LEL,rat [19]; [56],0.25 mg/kg/day
same,NEL,rat [19]; [56],< 0.25 mg/kg/day
same,LOAEL,rat [20]; systemic / hematology / erythrocyte (rbc) count differential / erythrocyte (rbc),30 mg/kg/day
same,NOAEL,rat [20]; systemic / hematology / erythrocyte (rbc) count differential / erythrocyte (rbc) + systemic / clinical chemistry / albumin / albumin + …,3 mg/kg/day
same,LEL,rat [20]; [42],0.3 mg/kg/day
same,NEL,rat [20]; [42],< 0.3 mg/kg/day
